Where two headings read alike, the source gives them in different places.
What was measured:
[1] = target: HyNaC2/4/6 (Hydra magnipapillata)
[2] = target: HyNaC2/11/5 (Hydra magnipapillata)
[3] = target: HyNaC2/3/6 (Hydra magnipapillata)
[4] = target: HyNaC2/3/7 (Hydra magnipapillata)
[5] = target: HyNaC2/3/5 (Hydra magnipapillata)
[6] = target: HyNaC2/10/7 (Hydra magnipapillata)
[7] = target: HyNaC2/9/7 (Hydra magnipapillata)
HyNaC2/4/6 = HyNaC2/4/6 (Hydra vulgaris (Hydra magnipapillata), UniProt A0A0A0MP54+A8DZR6+A8DZR8); experiment: Activation of HyNaC2/4/6 expressed in Xenopus oocytes by Hydra-RFamides (TEVC); type: cell-based; details: EGTA-injected oocytes
Experimental: (§1) To study the biophysical properties of the new HyNaCs, cRNA of HyNaCs was synthesized in vitro (mMessage mMachine kit, Ambion, Austin, Texas, USA) and injected into Xenopus laevis oocytes of stage V and VI. After injection, oocytes were incubated for one to two days at 19°C in oocyte Ringer’s solution 2 (OR-2), which contained (in mM): 82.5 NaCl, 2.5 KCl, 1.0 Na2HPO4, 1.0 MgCl2, 1.0 CaCl2, 5.0 HEPES, 0.5 g/l PVP, 1,000 U/l penicillin and 10 mg/l streptomycin, NaOH was used to adjust pH to 7.3. Whole cell currents were recorded from defolliculated oocytes by two-electrode voltage-clamp (TEVC) using the amplifier TurboTec 03X (npi electronic GmbH, Tamm, Germany). Standard bath solution (in mM: 140 NaCl, 10 HEPES, 1.8 CaCl2 and 1.0 MgCl2. NaOH was used to adjust pH to 7.4.) was exchanged by a pump driven system combined with the oocyte testing carousel (OTC), which was controlled by the interface OTC-20 [53]. To control the OTC-20 and to record the data to the hard drive, the software CellWorks (version 5.1.1; npi electronic GmbH, Tamm, Germany) was used. Data were sampled at 0.1 to 1 kHz and filtered at 20 Hz. HyNaCs are permeable for Ca^2+, activating an endogenous CaCC [40]. Therefore, unless otherwise indicated, oocytes were injected with 50 nl of 20 mM EGTA 30 to 180 minutes before measurements. Reversal potentials and Ca^2+ permeabilities of HyNaCs were studied as described previously.
(§2) EC50 values for Hydra-RFamides I and II as well as IC50 values for diminazene were determined by fits to the Hill equation using IGOR Pro (version 6.06, WaveMetrics, Inc.). Reversal potentials were defined as the first recorded data point, where currents reversed signs from negative to positive. For I/V relationships, voltage ramps in the absence of the agonist were used to subtract background conductances. Results are reported as mean ± standard error.

HyNaC2/3/6 = HyNaC2/3/6 (Hydra vulgaris (Hydra magnipapillata), UniProt A0A0A0MP54+A8DZR6+A8DZR7); experiment: Activation of HyNaC2/3/6 expressed in Xenopus oocytes by Hydra-RFamides (TEVC); type: cell-based; details: EGTA-injected oocytes
Experimental: as §1, §2

HyNaC2/3/5 [8] = target: T1, HyNaC2/3/5 (Hydra vulgaris (Hydra magnipapillata), UniProt A8DZR6+A8DZR7+D3UD58); set-up: method as in PMID 20159980; details: ref [4], cited from earlier work
T1 sequence (A8DZR6 entry or part of it): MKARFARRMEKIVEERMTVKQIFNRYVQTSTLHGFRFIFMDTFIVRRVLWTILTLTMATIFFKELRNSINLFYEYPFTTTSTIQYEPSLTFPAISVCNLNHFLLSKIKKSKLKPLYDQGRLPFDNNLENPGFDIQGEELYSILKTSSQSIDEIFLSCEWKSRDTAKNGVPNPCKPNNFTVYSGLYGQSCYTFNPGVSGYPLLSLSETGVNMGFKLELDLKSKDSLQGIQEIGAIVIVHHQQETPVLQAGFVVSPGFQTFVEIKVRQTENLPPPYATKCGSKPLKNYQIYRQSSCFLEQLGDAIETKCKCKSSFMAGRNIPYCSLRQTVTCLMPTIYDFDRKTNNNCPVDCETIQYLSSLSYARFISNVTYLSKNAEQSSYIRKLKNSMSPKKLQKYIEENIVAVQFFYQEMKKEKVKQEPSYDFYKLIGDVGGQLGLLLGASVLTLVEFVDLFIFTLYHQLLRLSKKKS
T1 sequence (D3UD58 entry or part of it): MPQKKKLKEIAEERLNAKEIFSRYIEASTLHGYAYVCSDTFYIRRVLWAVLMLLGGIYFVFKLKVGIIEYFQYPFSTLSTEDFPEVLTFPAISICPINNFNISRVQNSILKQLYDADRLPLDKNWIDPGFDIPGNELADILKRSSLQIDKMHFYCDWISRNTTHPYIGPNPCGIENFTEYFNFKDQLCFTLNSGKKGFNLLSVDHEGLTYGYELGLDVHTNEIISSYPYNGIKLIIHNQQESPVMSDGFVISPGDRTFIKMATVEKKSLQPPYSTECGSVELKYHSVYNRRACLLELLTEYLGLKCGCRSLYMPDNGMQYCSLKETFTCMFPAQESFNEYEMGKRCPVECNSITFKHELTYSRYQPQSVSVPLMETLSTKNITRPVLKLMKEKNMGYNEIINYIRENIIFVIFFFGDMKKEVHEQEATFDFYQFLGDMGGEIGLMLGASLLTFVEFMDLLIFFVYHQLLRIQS
T1 sequence (A8DZR7 entry or part of it): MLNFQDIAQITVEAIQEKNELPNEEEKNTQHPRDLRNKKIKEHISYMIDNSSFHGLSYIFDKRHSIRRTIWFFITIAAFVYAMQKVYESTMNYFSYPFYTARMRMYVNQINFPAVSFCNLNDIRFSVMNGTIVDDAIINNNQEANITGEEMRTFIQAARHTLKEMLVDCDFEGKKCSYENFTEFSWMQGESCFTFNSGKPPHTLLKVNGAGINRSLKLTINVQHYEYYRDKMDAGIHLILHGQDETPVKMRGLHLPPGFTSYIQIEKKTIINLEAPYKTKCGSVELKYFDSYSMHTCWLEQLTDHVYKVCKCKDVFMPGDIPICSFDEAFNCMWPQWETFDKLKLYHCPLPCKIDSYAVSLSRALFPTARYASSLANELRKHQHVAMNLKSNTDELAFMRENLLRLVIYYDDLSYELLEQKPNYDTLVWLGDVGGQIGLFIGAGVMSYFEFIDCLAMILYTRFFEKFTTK

HyNaC2/10/7 = HyNaC2/10/7 (Hydra vulgaris (Hydra magnipapillata), UniProt A0A0A0MP61+A0A0A0MP73+A8DZR6); experiment: Activation of HyNaC2/10/7 expressed in Xenopus oocytes by Hydra-RFamides (TEVC); type: cell-based; details: EGTA-injected oocytes
Experimental: as §1, §2

HyNaC2/3/5 [9] = target: T1, HyNaC2/3/5; experiment: Activation of HyNaC2/3/5 expressed in Xenopus oocytes by Hydra-RFamides (TEVC); type: cell-based; details: EGTA-injected oocytes
Experimental: as §1, §2

HyNaC2/3/7 = HyNaC2/3/7 (Hydra vulgaris (Hydra magnipapillata), UniProt A0A0A0MP73+A8DZR6+A8DZR7); experiment: Activation of HyNaC2/3/7 expressed in Xenopus oocytes by Hydra-RFamides (TEVC); type: cell-based; details: EGTA-injected oocytes
Experimental: as §1, §2

[10] = system: functional HyNaC heterotrimer; experiment: Screen of functional HyNaC heterotrimers in Xenopus oocytes for activation by Hydra-RFamides; type: cell-based, Hydra magnipapillata; details: data not shown
Experimental: We tested the function of the new HyNaCs by co-expression of different HyNaC subunit combinations in Xenopus oocytes. We screened for functional subunit combinations by application of 5 μM Hydra-RFamide I, a potent agonist of HyNaC2/3/5 [4]. When we expressed an individual HyNaC subunit we could never elicit currents. […] When HyNaC2 was part of the injected cRNA pool, however, Hydra-RFamide I elicited currents. Simultaneous expression of HyNaC2 with a single other HyNaC resulted only in a functional channel when we co-expressed HyNaC2 and HyNaC3; it was already known that HyNaC2 and HyNaC3 form a low-affinity peptide-gated channel.
Dashed line represents the zero current level. Amino acid sequences of Hydra-RFamides I to V are shown at the bottom. HyNaC, Hydra Na^+ channel.
Since Hydra-RFamide II had been shown previously to activate HyNaC2/3/5 [4], we tested Hydra-RFamides II to V for channel activation.
as §1

HyNaC2/11/5 = HyNaC2/11/5 (Hydra vulgaris (Hydra magnipapillata), UniProt A0A0A0MP55+A8DZR6+D3UD58); experiment: Activation of HyNaC2/11/5 expressed in Xenopus oocytes by Hydra-RFamides (TEVC); type: cell-based
Chain of HyNaC2/11/5 (A0A0A0MP55 entry or part of it): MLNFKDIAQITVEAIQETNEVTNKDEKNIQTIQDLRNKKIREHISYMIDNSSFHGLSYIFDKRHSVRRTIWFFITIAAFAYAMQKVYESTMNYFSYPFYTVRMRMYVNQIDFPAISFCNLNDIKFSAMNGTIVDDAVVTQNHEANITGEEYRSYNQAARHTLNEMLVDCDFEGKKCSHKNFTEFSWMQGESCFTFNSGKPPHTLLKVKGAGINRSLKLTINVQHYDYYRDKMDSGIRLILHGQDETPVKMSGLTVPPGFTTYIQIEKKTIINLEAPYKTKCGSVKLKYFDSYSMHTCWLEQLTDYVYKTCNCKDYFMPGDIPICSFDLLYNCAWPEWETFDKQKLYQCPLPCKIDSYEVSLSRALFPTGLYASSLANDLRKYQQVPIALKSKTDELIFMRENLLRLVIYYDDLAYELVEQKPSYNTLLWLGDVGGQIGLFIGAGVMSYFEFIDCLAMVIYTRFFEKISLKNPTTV
Chain of HyNaC2/11/5 (A8DZR6 entry or part of it): as the sequence (A8DZR6 entry or part of it) above
Chain of HyNaC2/11/5 (D3UD58 entry or part of it): as the sequence (D3UD58 entry or part of it) above
Experimental: as §1, §2

HyNaC2/9/7 = HyNaC2/9/7 (Hydra vulgaris (Hydra magnipapillata), UniProt A0A0A0MP48+A0A0A0MP73+A8DZR6); experiment: Activation of HyNaC2/9/7 expressed in Xenopus oocytes by Hydra-RFamides (TEVC); type: cell-based; details: EGTA-injected oocytes
Chain of HyNaC2/9/7 (A0A0A0MP48 entry or part of it): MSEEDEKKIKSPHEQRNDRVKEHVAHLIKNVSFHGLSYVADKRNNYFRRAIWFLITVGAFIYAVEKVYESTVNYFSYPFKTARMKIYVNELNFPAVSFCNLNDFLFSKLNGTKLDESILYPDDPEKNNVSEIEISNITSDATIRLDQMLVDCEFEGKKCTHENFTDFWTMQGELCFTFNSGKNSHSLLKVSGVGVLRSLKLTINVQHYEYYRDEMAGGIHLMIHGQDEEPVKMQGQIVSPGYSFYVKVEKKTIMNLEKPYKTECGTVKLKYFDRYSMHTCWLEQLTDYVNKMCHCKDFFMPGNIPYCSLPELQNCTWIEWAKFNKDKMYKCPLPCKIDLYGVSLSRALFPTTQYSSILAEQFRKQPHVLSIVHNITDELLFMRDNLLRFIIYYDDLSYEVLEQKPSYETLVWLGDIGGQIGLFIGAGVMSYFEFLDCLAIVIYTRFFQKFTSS
Chain of HyNaC2/9/7 (A8DZR6 entry or part of it): as the sequence (A8DZR6 entry or part of it) above
Chain of HyNaC2/9/7 (A0A0A0MP73 entry or part of it): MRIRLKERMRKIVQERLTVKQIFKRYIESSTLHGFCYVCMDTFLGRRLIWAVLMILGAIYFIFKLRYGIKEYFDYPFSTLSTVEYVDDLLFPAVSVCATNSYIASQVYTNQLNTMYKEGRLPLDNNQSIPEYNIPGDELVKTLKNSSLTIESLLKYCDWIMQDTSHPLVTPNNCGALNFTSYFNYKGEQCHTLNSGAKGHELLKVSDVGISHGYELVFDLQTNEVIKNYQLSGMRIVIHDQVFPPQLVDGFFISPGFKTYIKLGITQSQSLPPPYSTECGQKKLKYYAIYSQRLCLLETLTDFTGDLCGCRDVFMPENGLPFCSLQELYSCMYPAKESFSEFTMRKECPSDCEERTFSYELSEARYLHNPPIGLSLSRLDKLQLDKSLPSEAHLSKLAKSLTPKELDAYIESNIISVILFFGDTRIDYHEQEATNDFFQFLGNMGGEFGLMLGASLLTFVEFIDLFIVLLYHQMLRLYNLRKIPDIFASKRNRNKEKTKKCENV
Experimental: as §1, §2

HyNaC2/9/5 = experiment: Activation of HyNaC2/9/5 in Xenopus oocytes by Hydra-RFamides; type: cell-based, Hydra magnipapillata; details: channel opened by lowering extracellular Ca2+
Experimental: The contribution of the distantly related HyNaC12 to peptide-gated channels was assessed by co-expression with HyNaC2 and one or several other HyNaCs (HyNaC3 to HyNaC11). In addition, HyNaC12 was co-expressed with pools of different HyNaCs without HyNaC2. […] In fact, all HyNaCs that were activated by Hydra-RFamide I were opened by lowering the extracellular Ca^2+ concentration ([Ca^2+]e) to 10 nM (Figure 4). […] Some DEG/ENaCs are constitutively opened by an amino acid substitution at the so-called DEG-position. To further investigate whether HyNaC12 forms a functional homomeric channel, we substituted a glycine at the DEG-position by threonine (G436T), which has a large side chain. This substitution did, however, not constitutively open HyNaC12 (data not shown). This applies also for the co-expression of HyNaC12-G436T together with pools of different wild-type HyNaC subunits, leaving the function of HyNaC12 unknown.
To study the biophysical properties of the new HyNaCs, cRNA of HyNaCs was synthesized in vitro (mMessage mMachine kit, Ambion, Austin, Texas, USA) and injected into Xenopus laevis oocytes of stage V and VI. […] Whole cell currents were recorded from defolliculated oocytes by two-electrode voltage-clamp (TEVC) using the amplifier TurboTec 03X (npi electronic GmbH, Tamm, Germany). […]

## Hydra-RFamide I (peptide)
[1]
  EC50 of current activation by Hydra-RFamide I (two-electrode voltage clamp, Xenopus oocytes injected with EGTA): 700 nM
[2]
  EC50 of current activation by Hydra-RFamide I (two-electrode voltage clamp, Xenopus oocytes injected with EGTA): 13800 nM
[3]
  EC50 of current activation by Hydra-RFamide I (two-electrode voltage clamp, Xenopus oocytes injected with EGTA): 290 nM
[4]
  EC50 of current activation by Hydra-RFamide I (two-electrode voltage clamp, Xenopus oocytes injected with EGTA): 190 nM
[5]
  EC50 of current activation by Hydra-RFamide I (two-electrode voltage clamp, Xenopus oocytes injected with EGTA): 3480 nM
[6]
  EC50 of current activation by Hydra-RFamide I (two-electrode voltage clamp, Xenopus oocytes injected with EGTA); saturation not reached: > 30000 nM
[7]
  EC50 of current activation by Hydra-RFamide I (two-electrode voltage clamp, Xenopus oocytes injected with EGTA): 40 nM

## Hydra-RFamide II
HyNaC2/4/6
  current amplitude at highest agonist concentration (Hydra-RFamide II): 4.7 ± 0.8 μA
HyNaC2/3/6
  current amplitude at highest agonist concentration (Hydra-RFamide II): 9.2 ± 1.7 μA
HyNaC2/3/5 [8]; oocytes not injected with EGTA, read-out: EC50 (apparent affinity) for Hydra-RFamide II
  EC50: 340 ± 80 nM
HyNaC2/3/5 [8]
  apparent affinity for Hydra-RFamide II relative to Hydra-RFamide I: ten times higher
HyNaC2/10/7
  current amplitude at highest agonist concentration (Hydra-RFamide II): 1.1 ± 0.4 μA
HyNaC2/3/5 [9]
  current amplitude at highest agonist concentration (Hydra-RFamide II): 5.3 ± 1.0 μA
HyNaC2/3/5 [9]; read-out: EC50 (apparent affinity) for Hydra-RFamide II
  EC50: 1610 ± 270 nM
HyNaC2/3/7
  current amplitude at highest agonist concentration (Hydra-RFamide II): 11.8 ± 4.0 μA
[10]
  activation of channels that were activated by Hydra-RFamide I: also activated
HyNaC2/11/5; 0.95 μM compared with 13.8 μM
  apparent affinity for Hydra-RFamide II relative to Hydra-RFamide I: about 15 fold
HyNaC2/11/5; EGTA-injected oocytes
  current amplitude at highest agonist concentration (Hydra-RFamide II): 2.2 ± 0.4 μA
HyNaC2/11/5; EGTA-injected oocytes, read-out: EC50 for Hydra-RFamide II
  EC50: 950 ± 160 nM
HyNaC2/9/7
  current amplitude at highest agonist concentration (Hydra-RFamide II): 3.6 ± 1.3 μA
HyNaC2/9/7; read-out: EC50 for Hydra-RFamide II
  EC50: 40 ± 10 nM
HyNaC2/9/5
  activation of HyNaC2/9/5: not activated

From article PMC4212090, “The comprehensive analysis of DEG/ENaC subunits in Hydra reveals a large variety of peptide-gated channels, potentially involved in neuromuscular transmission” (BMC Biology, 2014)
